These results are taken from ChEMBL document CHEMBL5226292, “Nonpungent N-AVAM Capsaicin Analogues and Cancer Therapy” (J Med Chem, 2021).

Converted amounts (≈) assume the structure as drawn.

Data set [1] deals with DMS-114. Nature of the data set: Antiproliferative activity in human DMS-114 cells assessed as cell growth inhibition by MTT assay. The class given is functional, cell-based. Background: Formazan colour is commonly taken as a measure of viable cells.
A short description of data set [2]: AUC in sc dosed mouse. The settings on record: in vivo. The arrangement: route sc. The class given is ADME, organism-based.
A short description of data set [3]: AUC in po dosed mouse. The arrangement: route po. The class given is ADME, organism-based. Particulars: in vivo.
In data set [4] the test system is MCF7. Nature of the data set: Antiproliferative activity in human MCF7 cells assessed as cell growth inhibition by MTT assay. The class given is functional, cell-based.
In data set [5] the test system is T47D. Nature of the data set: Antiproliferative activity in human T47D cells assessed as cell growth inhibition by MTT assay. The class given is functional, cell-based.
The test system of data set [6] is EFM-19. Put plainly: Antiproliferative activity in human EFM-19 cells assessed as cell growth inhibition by MTT assay. The class given is functional, cell-based.
A short description of data set [7]: Induction of apoptosis in human PBMC cells. The class given is functional.
Data set [8] concerns C6. Nature of the data set: Antiproliferative activity against rat C6 cells assessed as inhibition of cell growth at 10 uM relative to control. The class given is functional. The arrangement: scale not given: the % may be the effect or the level left.
Data set [9] in a line: Drug concentration in Sprague-Dawley rat hepatocytes measured after 30 mins relative to control. The class given is ADME, cell-based, Hepatocyte. Particulars: 0.5 h.
Data set [10] in a line: Drug concentration in rat enterocytes measured after 30 to 60 mins relative to control.
Data set [11] deals with P388. Nature of the data set: Antiproliferative activity in mouse P388 cells assessed as cell growth inhibition by MTT assay. The class given is functional, cell-based.
For data set [12], the system named is J774. Nature of the data set: Antiproliferative activity in mouse J774 cells assessed as cell growth inhibition. The class given is functional, cell-based.
Data set [13] is described as follows: Antiproliferative activity in mouse WEHI-3 cells assessed as cell growth inhibition. The class given is functional, cell-based.
The nature of data set [14]: Antiproliferative activity in human Cervical carcinoma cell assessed as cell growth inhibition. The class given is functional, cell-based.
Data set [15] can be described thus: Cytotoxicity against human Bone marrow cell assessed as cell growth inhibition. The class given is toxicity, cell-based. Particulars: bone marrow cells.
For data set [16], the system named is TSU. Nature of the data set: Antiproliferative activity in human TSU cells assessed as cell growth inhibition. The class given is functional, cell-based.
For data set [17], the system named is PPC-1. Put plainly: Antiproliferative activity in human PPC-1 cells assessed as cell growth inhibition. The class given is functional, cell-based.
In data set [18] the test system is Ca-Ski. Put plainly: Antiproliferative activity in human Ca-Ski cells assessed as cell growth inhibition. The class given is functional, cell-based.

Consider `CC/C=C\C/C=C\C/C=C\CCCCCCCC(=O)NCc1ccc(O)c(OC)c1`, for which, in data set [1], the IC50 – broadly, the concentration that gives 50% inhibition – is 15 µM.

Take `CCCCCCCC/C=C\CCCCCCCC(=O)NCc1ccc(O)c(OC)c1` [OLVANIL]: the AUC in [2] stood at 8 µg·h/g; in data set [3], 0.1 µg·h/g. Moreover, the IC50 in data set [4] is 1 µM; in [5], 0.75 µM; in [6], 0.7 µM; in data set [1], above 50 µM. For the same compound, the Activity stood at 20.5% in [7] and 95% in data set [8]. For the same compound, the Drug uptake in data set [9] is on record as 4%; in data set [10], 1%.

For the compound `CCCCC/C=C\C/C=C\CCCCCCCC(=O)NCc1ccc(O)c(OC)c1`, in data set [1], the IC50 came out at 43 µM.

As to `CCCCCC[C@H](O)C/C=C\CCCCCCCC(=O)NCc1ccc(O)c(OC)c1`, the IC50 in data set [11] turned out to be 9 µg/mL (≈ 20.8 µM); in [12], 8 µg/mL (≈ 18.4 µM); in data set [13], 3 µg/mL (≈ 6.92 µM); in data set [14] it was 149 µg/mL (≈ 344 µM); in [15] it was 40 µg/mL (≈ 92.2 µM).

For the compound `COc1cc(CNC(=O)CCCC/C=C/C(C)C)ccc1O` [CAPSAICIN], the IC50 in [4] and in data set [5] was 100 µM in each case. In addition, the Activity in data set [8] came to 20%.

As for `CCCCC/C=C\C/C=C\C/C=C\C/C=C\CCCC(=O)NCc1ccc(O)c(OC)c1`, the IC50 in data set [4] turned out to be 0.4 µM; in [5], 0.35 µM; in [6], 0.55 µM; in data set [1], 15 µM; in data set [16], 0.1 µM; in data set [17], 1 µM. In data set [7], this compound displayed an Activity of 60%.

In the case of `CCCCCC[C@@H](C/C=C\CCCCCCCC(=O)NCc1ccc(O)c(OC)c1)OC(=O)Cc1ccccc1`, the IC50 is 49 µg/mL (≈ 88.8 µM) in data set [11]; 10 µg/mL (≈ 18.1 µM) in data set [12]; 31 µg/mL (≈ 56.2 µM) in [13]; 74 µg/mL (≈ 134 µM) in [14]; 122 µg/mL (≈ 221 µM) in data set [18]; 73 µg/mL (≈ 132 µM) in data set [15].

Regarding `CCCCCCCCCCCCCCCC(=O)NCc1ccc(O)c(OC)c1`, the IC50 was 2.2 µM in [4], 1.6 µM in [5] and 1 µM in data set [6].
